Source: patent US20190212340A1, “AN ELISA-LIKE ASSAY FOR QUANTIFYING ENZYMATIC ACTIVITIES OF MONO-ADP-RIBOSYLTRANSFERASES” (University of Southern California, priority 2016, published 2019)

Tests used:
PARP15 [1] = biological target: T1, PARP15 (Homo sapiens, UniProt Q460N3); test: MLISA inhibition of PARP15-catalyzed automodification (Experiment No. 2); format: biochemical; details: at concentrations up to 100 μM
T1 construct: The catalytic domains of PARP15 (residue 481-678); His6 (N); Factor Xa cleavage site (IEGR) (N); made in house; host or cells: E. coli BL21 (DE3)
T1 sequence (Q460N3 with tags, fused parts or gaps): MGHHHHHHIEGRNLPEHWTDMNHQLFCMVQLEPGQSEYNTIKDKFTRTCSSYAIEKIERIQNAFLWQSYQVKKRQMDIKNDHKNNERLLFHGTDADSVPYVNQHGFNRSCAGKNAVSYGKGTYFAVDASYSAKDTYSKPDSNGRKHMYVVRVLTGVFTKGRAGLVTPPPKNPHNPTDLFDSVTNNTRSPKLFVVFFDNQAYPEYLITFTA

PARP15 [2] = biological target: T2, PARP15 (Homo sapiens, UniProt Q460N3); details: Karlberg et al., J. Biol. Chem. 2015; read-out: Km value of PARP15 reported previously; cited from earlier work
T2 sequence (Q460N3 1-678): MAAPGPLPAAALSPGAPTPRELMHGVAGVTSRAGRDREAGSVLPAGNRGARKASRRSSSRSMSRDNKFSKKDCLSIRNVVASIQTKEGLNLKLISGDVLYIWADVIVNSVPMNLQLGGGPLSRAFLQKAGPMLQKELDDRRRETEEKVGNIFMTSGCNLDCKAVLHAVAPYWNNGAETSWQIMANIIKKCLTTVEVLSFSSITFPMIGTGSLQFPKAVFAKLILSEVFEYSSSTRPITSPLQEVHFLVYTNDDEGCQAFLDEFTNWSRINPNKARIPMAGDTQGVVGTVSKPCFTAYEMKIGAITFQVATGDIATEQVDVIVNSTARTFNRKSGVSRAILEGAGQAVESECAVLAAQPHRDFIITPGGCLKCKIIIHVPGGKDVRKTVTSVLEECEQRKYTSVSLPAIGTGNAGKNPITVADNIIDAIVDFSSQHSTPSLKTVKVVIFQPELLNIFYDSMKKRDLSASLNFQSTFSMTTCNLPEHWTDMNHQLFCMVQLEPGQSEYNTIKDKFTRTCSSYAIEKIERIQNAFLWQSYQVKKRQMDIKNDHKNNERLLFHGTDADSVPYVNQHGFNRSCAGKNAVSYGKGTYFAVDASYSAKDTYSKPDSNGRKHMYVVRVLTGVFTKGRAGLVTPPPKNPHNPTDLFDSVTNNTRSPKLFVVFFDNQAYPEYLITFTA

PARP15 [3] = biological target: T1, PARP15; test: M2-based ELISA plate inhibition assay, PARP15 (Experiment No. 1); format: biochemical; details: 500 nM PARP15, 500 μM NAD+, inhibitors at 1, 10 and 100 μM, 2 h
Procedure: The general scheme of ELISA assay is illustrated in FIG. 1. PARP automodification reactions (100 μL) were conducted in 96-wells plate together with the coating process for 2 hours at room temperature. After five times of 200 μL PBST washes (0.1% v/v Tween 20 in PBS buffer, pH 7.4) per well the plates were blocked with 3% BSA dissolved in PBS buffer for 2 hours under room temperature followed by five washes of 200 μL PBST per well. The plates were incubated for 1 hour upon addition of 100 μL of 0.1 μM Macrodomain 2 and then washed five times with 200 μL PBST per well. […] The fluorescence signal was developed by addition of 75 μL QuantaBlu Fluorogenic Peroxidase Substrate and recorded by Synergy H1 Multi-Mode Reader (BioTek, VT). Kinetic parameters were calculated using nonlinear regression Michaelis-Menten model using GraphPad Prism (GraphPad Software). […]
96-well ELISA plates were coated with reactions in triplicates consisting of PARP enzymes (PARP14: 1 μM; PARP15: 500 nM) with various inhibitors at different concentrations (1, 10 and 100 μM) in addition to 500 μM of NAD^+ in Reaction Buffer (50 mM Tris-HCl, pH 7.4, 2 mM dTT). […] To control for any potential inhibition activity related to DMSO, wells containing 1% DMSO were analyzed in triplicates alongside with no inhibitor control wells and 100 μM control inhibitor wells.

Row | inhibition effects on PARP15 activity (PARP15 [1]) | SMILES | other results
1 | no significant inhibition effects | Nc1ncnc2[nH]cnc12 [Adenine] | 
2 | no significant inhibition effects | CN(C)c1ccc(O)c2c1C[C@H]1C[C@H]3[C@H](N(C)C)C(O)=C(C(N)=O)C(=O)[C@@]3(O)C(O)=C1C2=O [Minocin] | 
3 |  | NC(=O)c1ccc[n+]([C@@H]2O[C@H](COP(=O)([O-])OP(=O)(O)OC[C@H]3O[C@@H](n4cnc5c(N)ncnc54)[C@H](O)[C@@H]3O)[C@@H](O)[C@H]2O)c1 [NAD^+, Nicotinamide adenine dinucleotide] | Km (PARP15 [2]): 5.8 ± 1.9 µM
4 |  | O=C(c1cc(Cc2n[nH]c(=O)c3ccccc23)ccc1F)N1CCN(C(=O)C2CC2)CC1 [Olaparib] | inhibition of PARP15 (fluorescence intensity) (PARP15 [3]): better inhibitory effect at 100 μM but it is less potent comparing to other inhibitor
5 | no significant inhibition effects | O=c1[nH]c(-c2ccc(C(F)(F)F)cc2)nc2c1CSCC2 [XAV939] | 
